Measurements as given in patent US6495571B1, “Pyridine compounds, use and preparation thereof” (Southern Research Institute, priority 1999, dated 2002).
Where two headings read alike, the source gives them in different places.

Columns and labels:
P388/0 murine leukemia = settings: Q1D × 5 (1)
[1] = test system: P388/BCNU (carmustine-resistant) leukemia; experiment: Antitumor activity against IP-implanted P388/BCNU leukemia; settings: Q1D × 5 (1)
Cytotoxicity in vitro = format: cell-based
[2] = test system: P388/L-PAM (melphalan-resistant) leukemia
[3] = test system: P388/CPA (cyclophosphamide-resistant) leukemia; format: in vivo, CD2F1 female mice; settings: Q1D × 5 (1)
[4] = test system: human MX-1 mammary tumor (ic, 10^6 cells); experiment: In vivo antitumor activity, i.c.-implanted MX-1 xenograft
[5] = IP 60.0 mg/kg/dose, Q1D × 5 (1)
[6] = IP 135.0 mg/kg/dose, Q1D × 5 (1)
[7] = optimal doses (LD10 or less), schedule QD1-5, administered LP.

In the case of `COc1nc(C(Cl)(Cl)Cl)c(Cl)c(O)c1Cl` [DM-PEN, 3,5-dichloro-2-methoxy-4-hydroxy-6-(trichloromethyl)pyridine], the “50-DAY SURV./TOTAL” value (P388/0 murine leukemia; IP 60.0 mg/kg/dose) is reported as 0/6, the “50-DAY SURV./TOTAL” value (P388/0 murine leukemia; IP 90.0 mg/kg/dose) is reported as 0/6 and the “MEDIAN DAY OF DEATH” value (P388/0 murine leukemia; IP 90.0 mg/kg/dose) is reported as 19.0. The “50-DAY SURV./TOTAL” value (P388/0 murine leukemia; IP 135.0 mg/kg/dose) was 0/6, the “APPROX. NET LOG10 CHANGE IN TUMOR BURDEN AT END OF Rx” value (P388/0 murine leukemia; IP 135.0 mg/kg/dose) was “TOXIC” and the “MEDIAN DAY OF DEATH” value (P388/0 murine leukemia; IP 135.0 mg/kg/dose) was 8.5. For the same compound, the “50-DAY SURV./TOTAL” value ([1]; IP 60.0 mg/kg/dose) was 0/6, the “% ILS” value ([1]; IP 60.0 mg/kg/dose) was “+33%” and the “APPROX. NET LOG10 CHANGE IN TUMOR BURDEN AT END OF Rx” value ([1]; IP 60.0 mg/kg/dose) was “+0.8”. For the same compound, the “50-DAY SURV./TOTAL” value ([1]; IP 90.0 mg/kg/dose) was 0/6, the “APPROX. NET LOG10 CHANGE IN TUMOR BURDEN AT END OF Rx” value ([1]; IP 90.0 mg/kg/dose) was −0.6 and the “MEDIAN DAY OF DEATH” value ([1]; IP 90.0 mg/kg/dose) was 14.0. The “50-DAY SURV./TOTAL” value ([1]; IP 135.0 mg/kg/dose) was 0/6, the “% ILS” value ([1]; IP 135.0 mg/kg/dose) was “+88%” and the “Lethality of the dosage (LD mark beside % ILS)” value ([1]; IP 135.0 mg/kg/dose) was “LD17”. For the same compound, the “activity as cytotoxic agents in vitro” value (Cytotoxicity in vitro) was “inactive”, the “50-DAY SURV./TOTAL” value [2, 5] was 0/6 and the “MEDIAN DAY OF DEATH” value [2, 5] was 13.5. The “50-DAY SURV./TOTAL” value ([2]; IP 90.0 mg/kg/dose, Q1D × 5 (1)) was 0/6, the “50-DAY SURV./TOTAL” value [2, 6] was 0/6 and the “Lethality of the dosage (LD mark beside % ILS)” value [2, 6] was “LD33”. For the same compound, the “activity in this tumor model (in words)” value ([2]; mouse, in vivo) was “none of the three showed significant activity”, the “50-DAY SURV./TOTAL” value ([3]; IP 60.0 mg/kg/dose) was 0/6 and the “% ILS” value ([3]; IP 60.0 mg/kg/dose) was “+22%”. For the same compound, the “MEDIAN DAY OF DEATH” value ([3]; IP 60.0 mg/kg/dose) was 13.5, the “50-DAY SURV./TOTAL” value ([3]; IP 90.0 mg/kg/dose) was 0/6 and the “% ILS” value ([3]; IP 90.0 mg/kg/dose) was “+54%”. For the same compound, the “50-DAY SURV./TOTAL” value ([3]; IP 135.0 mg/kg/dose) was 0/6, the “% ILS” value ([3]; IP 135.0 mg/kg/dose) was “+31%” and the “MEDIAN DAY OF DEATH” value ([3]; IP 135.0 mg/kg/dose) was 14.5. The cures ([4]; Table 2 conditions) was “not”, the “Median % ILS (based on dying mice only)” value [4, 7] was 60% and the Survivors [4, 7] was 0/5.
